{"source": "patent US6586425B2", "about": "“Cytoskeletal active agents for glaucoma therapy” (Wisconsin Alumni Research Foundation, priority 1996, dated 2003)", "key": {"corneal endothelium": {"system": "corneal endothelium", "settings": "cynomolgus monkey, in vivo"}, "ciliary muscle strip": {"system": "ciliary muscle strip", "assay": "Pilocarpine-induced contraction of isolated ciliary muscle strip (muscle chamber)", "design": "species or system rhesus monkeys (Macaca mulatta)"}, "[1]": {"system": "normal living monkey eyes", "assay": "Miotic and accommodative response to intramuscular pilocarpine", "format": "in vivo, monkeys"}, "[2]": {"system": "ciliary muscle-disinserted monkey eyes", "assay": "Outflow facility in ciliary muscle-disinserted eyes", "format": "in vivo, cynomolgus and rhesus monkeys", "settings": "H-7 300 μM, nine monkeys"}, "living monkey eye [3]": {"system": "living monkey eye", "settings": "in vivo"}, "living monkey eye [4]": {"system": "living monkey eye", "assay": "Pupil size and refraction after topical H-7", "format": "in vivo, cynomolgus monkeys", "settings": "H-7 150 mM topical, six monkeys"}}, "note": "Values joined by “and” are separate entries in the source; they are usually repeats but may differ in a detail not shown here. Identical values can stand only once. “Also recorded” adds a separate entry of the source."}
{"molecule": "CC1CNCCN1S(=O)(=O)c1cccc2cnccc12", "note": "(stereo not shown) [H-7, 1-(5-isoquinolinyl-sulfonyl)-2-methylpiperazine]", "values": [{"measurement": "change in corneal endothelial cell counts", "setting": "corneal endothelium", "result": "did not reveal a statistical change in cell counts"}, {"measurement": "corneal endothelial cell morphology", "setting": "corneal endothelium", "result": "no morphological changes in cells were observed"}, {"measurement": "selectivity longitudinal vs circular vector", "setting": "ciliary muscle strip", "result": "no selectivity for one vector over the other"}, {"measurement": "time to inhibition of the initial pilocarpine contraction", "setting": "ciliary muscle strip; 10 μM pilocarpine + 300 μM H-7", "result": "≤ 10", "unit": "min"}, {"measurement": "contraction to 10 μM pilocarpine after washout", "setting": "ciliary muscle strip; 90 minute washout after 300 μM H-7", "result": "no contraction in either vector"}, {"measurement": "contraction to 10 μM pilocarpine after washout", "setting": "ciliary muscle strip; 2.5 hours after removal of H-7", "result": "sluggish contraction in both vectors"}, {"measurement": "effect on pilocarpine-induced miosis", "setting": "[1]; H-7 intracameral (~300 μM) or intravitreal (300 μM-1.2 mM)", "result": "inhibits ipsilateral pilocarpine-induced miosis"}, {"measurement": "effect on pupil after phenylephrine", "setting": "[1]; H-7 intracameral or intravitreal", "result": "dilates the ipsilateral pupil even beyond the effect of phenylephrine"}, {"measurement": "facility increase, ciliary muscle disinserted vs non-disinserted eyes", "setting": "[2]", "result": "essentially identical proportional increase in outflow facility"}, {"measurement": "drug-free baseline facility vs first baseline", "setting": "living monkey eye [3]", "result": "significant increase in facility"}, {"measurement": "effect on pupil size", "setting": "living monkey eye [4]", "result": "did have an effect on pupil size"}, {"measurement": "effect on refraction", "setting": "living monkey eye [4]", "result": "no statistically significant difference in refraction"}]}
{"molecule": "C/C1=C\\[C@H](C)C[C@H](C)OC(=O)C[C@H](c2ccc(O)cc2)NC(=O)[C@@H](Cc2c(Br)[nH]c3ccccc23)N(C)C(=O)[C@H](C)NC(=O)[C@@H](C)C1", "note": "[Jas]", "values": [{"measurement": "effect of Jas on Lat B-induced facility increase", "setting": "living monkey eye [3]", "result": "did not affect the 200 nM Lat B-induced facility increase; also recorded: did not affect the 60 nM Lat B-induced facility increase"}, {"measurement": "effect on outflow facility", "setting": "living monkey eye [3]", "result": "no significant effect on outflow facility"}, {"measurement": "outflow facility increase, adjusted for baseline and resistance washout in contralateral eyes", "setting": "living monkey eye [3]", "result": "157±57", "unit": "%"}]}
{"molecule": "CN[C@@H]1C[C@H]2O[C@@](C)([C@@H]1OC)n1c3ccccc3c3c4c(c5c6ccccc6n2c5c31)C(=O)NC4", "note": "[staurosporine]", "values": [{"measurement": "Facility PRx, Rx/Cont", "setting": "living monkey eye [3]", "result": "1.99 ± 0.43 and 1.03 ± 0.17 and 1.57 ± 0.25"}]}
